From patent publication US11414428B2, “Inhibitors of tryptophan dioxygenases (IDO1 and TDO) and their use in therapy” (Auckland UniServices Limited, priority 2015, dated 2022)

Assays:
[1] = Cell viability (MTT colourimetric assay) in the IDO1 cell-based assay; settings: mouse, same experiment as cellular IDO1 assay, read-out: Cell cytotoxicity IC50
Method: The viability of the cells in each well in the same experiment was determined using the 3-(4,5-dimethylthiazolyl-2-yl)-2,5-diphenyltetrazolium bromide ([…]) colourimetric assay. After the removal of the supernatant for determination of IDO1 inhibition, the cells were incubated with MU (500 μg/mL) until crystal formation was observed. Plates were centrifuged for 15 min at 2500 g, and then all the supernatant in then wells was discarded. DMSO (100 μL/well) was added to dissolve the crystals and then the absorbance in each well was measured at 570 nm. Cell viability in each well was expressed as a percentage of untreated controls. Triplicate cultures were used for all experiments unless stated otherwise.

[2] = Cell viability (MTT colourimetric assay) in the TDO cell-based assay; settings: mouse, same experiment as cellular TDO assay, read-out: Cell cytotoxicity IC50
Method: The viability of the cells in each well in the same experiment was determined using the 3-(4,5-dimethylthiazolyl-2-yl)-2,5-diphenyltetrazolium bromide ([…]) colourimetric assay.

[3] = biological target: Recombinant human IDO1 (rhIDO1) (Homo sapiens (Human), UniProt P14902); test: Enzymatic assay for IDO1 activity; assay type: biochemical; settings: rhIDO1 9 nM, 80 μM TRP, 37° C. 30 min
Sequence of Recombinant human IDO1 (rhIDO1) (P14902 whole entry): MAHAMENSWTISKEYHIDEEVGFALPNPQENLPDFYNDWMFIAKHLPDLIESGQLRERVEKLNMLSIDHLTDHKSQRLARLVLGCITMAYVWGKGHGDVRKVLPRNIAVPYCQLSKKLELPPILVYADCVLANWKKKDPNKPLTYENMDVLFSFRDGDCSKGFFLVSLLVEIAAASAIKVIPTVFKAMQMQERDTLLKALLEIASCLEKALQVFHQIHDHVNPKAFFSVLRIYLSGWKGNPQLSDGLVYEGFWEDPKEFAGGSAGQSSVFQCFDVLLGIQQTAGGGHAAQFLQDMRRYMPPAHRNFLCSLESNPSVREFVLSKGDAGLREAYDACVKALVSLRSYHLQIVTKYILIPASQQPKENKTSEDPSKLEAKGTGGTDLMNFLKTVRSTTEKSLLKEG
Method: Recombinant human IDO1 (rhIDO1) was expressed and purified from cultures of EC538 strain of E. coli transformed with pREP4 and pQE9-IDO plasmid. Reaction mixes were set up in 384-well microplates containing 50 mM phosphate buffer, 10 mM ascorbic, 10 μM methylene blue, 100 μg/mL catalase, 80 μM TRP, 0.01% Tween 20 (v/v) mixed with rhIDO1 (15 μL) at a final concentration of 9 nM in a total volume of 30 μL assay medium. The plates were incubated at 37° C. for 30 min, and the enzymatic reaction was terminated by adding piperidine (200 mM) and heated at 65° C. for 20 min. Fluorescence intensity was read at λex 400 nm and λem 500 nm. Test compounds were dissolved in 100% DMSO and pre-diluted in assay medium prior to adding rhIDO1. IDO1 inhibition (%) was calculated as
[formula] All experiments were carried out in triplicates, and statistical Analyses were conducted in Prism v5 (Graphpad Software, Inc., La Jolla, Calif., USA). Cell-Based Assay for IDO1 Inhibition

[4] = biological target: full length human TDO (GL261 cells) (Homo sapiens (Human), UniProt P48775); test: Cell-based assay for TDO inhibition; settings: GL261 cells over-expressing human TDO, 24 h; read-out: Cellular IC50
Sequence of full length human TDO (GL261 cells) (P48775 whole entry): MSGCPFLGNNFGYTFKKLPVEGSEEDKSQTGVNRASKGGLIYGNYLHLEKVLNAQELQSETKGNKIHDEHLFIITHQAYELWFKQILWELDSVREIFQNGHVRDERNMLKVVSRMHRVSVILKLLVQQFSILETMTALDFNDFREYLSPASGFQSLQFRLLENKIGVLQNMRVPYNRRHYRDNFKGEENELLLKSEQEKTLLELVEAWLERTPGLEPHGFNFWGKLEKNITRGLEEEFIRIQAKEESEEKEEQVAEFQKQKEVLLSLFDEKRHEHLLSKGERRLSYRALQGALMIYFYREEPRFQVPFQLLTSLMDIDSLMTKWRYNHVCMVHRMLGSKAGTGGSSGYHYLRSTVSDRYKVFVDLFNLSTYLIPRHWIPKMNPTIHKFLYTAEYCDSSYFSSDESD
Method: Culture supernatant from each well was then transferred into a fresh, flat-bottomed 96-well plate, and kynurenine content was determined as described above for the IDO1 assay, and the concentration that inhibited 50% cellular enzyme activity was calculated.

SMILES	IC50 [1]	IC50 [2]	IC50 [3]	IC50 [4]
Cc1nc2onc(N)c2c(C)c1Cl [Compound 1, 5-Chloro-4,6-dimethylisoxazolo[5,4-b]pyridin-3-amine]	> 100 µM	> 100 µM	–	–
Cc1nc2onc(NC(=O)Nc3ccc(OC(F)(F)F)cc3)c2c(C)c1Cl [Compound 2, 1-(5-Chloro-4,6-dimethylisoxazolo[5,4-b]pyridin-3-yl)-3-(4-(trifluoromethoxy)phenyl)urea]	> 100 µM	–	> 100 µM	–
Cc1nc2onc(NC(=O)Nc3ccc(C#N)cc3)c2c(C)c1Cl [Compound 3, 1-(5-chloro-4,6-dimethylisoxazolo[5,4-b]pyridin-3-yl)-3-(4-cyanophenyl)urea]	> 100 µM	–	10 to 100 µM	–
Cc1nc2onc(NC(=O)Oc3ccccc3)c2c(C)c1Cl [Compound 4, Phenyl (5-chloro-4,6-dimethylisoxazolo[5,4-b]pyridin-3-yl)carbamate]	> 100 µM	> 100 µM	1 to 10 µM	10 to 100 µM
Cc1nc2onc(NC(=O)Nc3ccccc3Cl)c2c(C)c1Cl [Compound 6, 1-(5-Chloro-4,6-dimethylisoxazolo[5,4-b]pyridin-3-yl)-3-(2-chlorophenyl)urea]	> 100 µM	–	> 100 µM	–
Cc1nc2onc(NC(=O)Nc3cccc(Cl)c3)c2c(C)c1Cl [Compound 7, 1-(5-Chloro-4,6-dimethylisoxazolo[5,4-b]pyridin-3-yl)-3-(3-chlorophenyl)urea]	> 100 µM	–	> 100 µM	–
Cc1nc2onc(NC(=O)Nc3ccc(Cl)cc3)c2c(C)c1Cl [Compound 8, 1-(5-Chloro-4,6-dimethylisoxazolo[5,4-b]pyridin-3-yl)-3-(4-chlorophenyl)urea]	> 100 µM	–	> 100 µM	–
Cc1nc2onc(NC(=O)Nc3ccccc3OC(F)(F)F)c2c(C)c1Cl [Compound 9, 1-(5-Chloro-4,6-dimethylisoxazolo[5,4-b]pyridin-3-yl)-3-(2-(trifluoromethoxy)phenyl)urea]	> 100 µM	–	> 100 µM	–
Cc1nc2onc(NC(=O)Nc3cccc(OC(F)(F)F)c3)c2c(C)c1Cl [Compound 10, 1-(5-Chloro-4,6-dimethylisoxazolo[5,4-b]pyridin-3-yl)-3-(3-(trifluoromethoxy)phenyl)urea]	> 100 µM	–	> 100 µM	–
COc1ccccc1NC(=O)Nc1noc2nc(C)c(Cl)c(C)c12 [Compound 11, 1-(5-Chloro-4,6-dimethylisoxazolo[5,4-b]pyridin-3-yl)-3-(2-methoxyphenyl)urea]	> 100 µM	–	10 to 100 µM	–
COc1cccc(NC(=O)Nc2noc3nc(C)c(Cl)c(C)c23)c1 [Compound 12, 1-(5-Chloro-4,6-dimethylisoxazolo[5,4-b]pyridin-3-yl)-3-(3-methoxyphenyl)urea]	> 100 µM	–	> 100 µM	–
COc1ccc(NC(=O)Nc2noc3nc(C)c(Cl)c(C)c23)cc1 [Compound 13, 1-(5-Chloro-4,6-dimethylisoxazolo[5,4-b]pyridin-3-yl)-3-(4-methoxyphenyl)urea]	> 100 µM	–	> 100 µM	–
Cc1nc2onc(NC(=O)Nc3ccccc3C(F)(F)F)c2c(C)c1Cl [Compound 14, 1-(5-Chloro-4,6-dimethylisoxazolo[5,4-b]pyridin-3-yl)-3-(2-(trifluoromethyl)phenyl)urea]	> 100 µM	–	> 100 µM	–
Cc1nc2onc(NC(=O)Nc3cccc(C(F)(F)F)c3)c2c(C)c1Cl [Compound 15, 1-(5-Chloro-4,6-dimethylisoxazolo[5,4-b]pyridin-3-yl)-3-(3-(trifluoromethyl)phenyl)urea]	> 100 µM	> 100 µM	> 100 µM	10 to 100 µM
Cc1nc2onc(NC(=O)Nc3ccc(C(F)(F)F)cc3)c2c(C)c1Cl [Compound 16, 1-(5-Chloro-4,6-dimethylisoxazolo[5,4-b]pyridin-3-yl)-3-(4-(trifluoromethyl)phenyl)urea]	> 100 µM	–	> 100 µM	–
Cc1nc2onc(NC(=O)Nc3ccccc3)c2c(C)c1Cl [Compound 17, 1-(5-Chloro-4,6-dimethylisoxazolo[5,4-b]pyridin-3-yl)-3-phenylurea]	> 100 µM	–	10 to 100 µM	–
Cc1nc2onc(NC(=O)Cc3ccccc3)c2c(C)c1Cl [Compound 18, N-(5-Chloro-4,6-dimethylisoxazolo[5,4-b]pyridin-3-yl)-2-phenylacetamide]	–	–	> 100 µM	–
Cc1nc2onc(NC(=O)Cc3ccc(OC(F)(F)F)cc3)c2c(C)c1Cl [Compound 19, N-(5-Chloro-4,6-dimethylisoxazolo[5,4-b]pyridin-3-yl)-2-(4-(trifluoromethoxy)phenyl)acetamide]	> 100 µM	–	> 100 µM	–
CC(=O)Nc1noc2nc(C)c(Cl)c(C)c12 [Compound 20, N-(5-Chloro-4,6-dimethylisoxazolo[5,4-b]pyridin-3-yl)acetamide]	> 100 µM	–	> 100 µM	–
